# Experimental data taken from PubChem BioAssay (NCI).
#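 Step 1: Grow cells in 96-well plates. Step 2: Expose to compound for 48 hours at 5 concentrations. Step 3: Interpolate endpoints linearly; if unreached, use highest concentration. GI50: concentration for 50% inhibition of growth. TGI: total growth inhibition.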
# Key:
# Assay in all cases: inhibition of tumour cell growth, NCI panel, 48 h
# MDA-MB-435 = test system: MDA-MB-435
# OVCAR-8 ovarian = test system: OVCAR-8 ovarian
# HL-60(TB) leukemia = test system: HL-60(TB) leukemia
# HS 578T breast = test system: HS 578T breast
# UO-31 renal = test system: UO-31 renal
# K-562 leukemia = test system: K-562 leukemia
# SF-539 CNS = test system: SF-539 CNS
# SR leukemia = test system: SR leukemia
SMILES,GI50 (MDA-MB-435),TGI (MDA-MB-435),GI50 (OVCAR-8 ovarian),TGI (OVCAR-8 ovarian),GI50 (HL-60(TB) leukemia),TGI (HL-60(TB) leukemia),GI50 (HS 578T breast),TGI (HS 578T breast),GI50 (UO-31 renal),TGI (UO-31 renal),GI50 (K-562 leukemia),TGI (K-562 leukemia),GI50 (SF-539 CNS),TGI (SF-539 CNS),GI50 (SR leukemia),TGI (SR leukemia)
Cn1cc(C2=C(N3CCOCC3)C(=O)NC2=O)c2ccccc21,> 25 µM,> 25 µM,> 25 µM,> 25 µM,> 25 µM,> 25 µM,> 25 µM,> 25 µM,> 25 µM,> 25 µM,> 25 µM,> 25 µM,> 25 µM,> 25 µM,> 25 µM,> 25 µM
O=C(O)Cn1cc([N+](=O)[O-])c(=O)c2ccccc21,,> 100 µM,,> 100 µM,,> 100 µM,,> 100 µM,,> 100 µM,,> 100 µM,,> 100 µM,,> 100 µM
O=C(CCc1ccc(O)cc1)N/N=C/c1cc(Br)ccc1O,6.31 µM,> 100 µM,3.7 µM,> 100 µM,2.5 µM,9.66 µM,10.1 µM,> 100 µM,1.34 µM,7.19 µM,3.12 µM,28.6 µM,4.03 µM,35.4 µM,2.52 µM,9.66 µM
O=C(O)C(Oc1nc(=S)[nH]c(=S)[nH]1)(c1ccc(Cl)cc1)c1ccc(Cl)cc1,,> 100 µM,,> 100 µM,,> 100 µM,,> 100 µM,,> 100 µM,,> 100 µM,,> 100 µM,,> 100 µM
Cc1ccc(Sc2cc3c(oc2=O)-c2ccccc2OC3O)cc1 (stereo not drawn),27.2 µM,54.6 µM,27.8 µM,71.3 µM,16.6 µM,37.1 µM,26.1 µM,61.7 µM,21.7 µM,50.4 µM,27.7 µM,> 100 µM,19.3 µM,33.8 µM,18.4 µM,46.3 µM
CCCCCCCCCCCCCCCC1=NC(C)(C)CN1C(C)C,1.44 µM,2.93 µM,1.72 µM,3.58 µM,0.91 µM,2.4 µM,1.62 µM,3.87 µM,1.44 µM,2.84 µM,0.448 µM,1.72 µM,1.63 µM,2.98 µM,0.254 µM,1.36 µM
C/C(=N\NC(=S)N(C)C)c1ccccn1,0.00401 µM,18.5 µM,0.00318 µM,10.8 µM,0.000325 µM,,,37.2 µM,0.166 µM,3.91 µM,0.000104 µM,> 41.3 µM,0.0516 µM,2.77 µM,0.00132 µM,
[N-]=[N+]=C(C(=O)N1CCCC1=O)S(=O)(=O)c1ccccc1,,> 100 µM,,> 100 µM,,> 100 µM,,> 100 µM,,> 100 µM,,> 100 µM,,> 100 µM,,> 100 µM
N#CC1C=Cc2c(ccc3ccccc23)N1C(=O)c1ccccc1 (stereo not drawn),0.0383 µM,0.664 µM,0.461 µM,> 100 µM,0.171 µM,,1.31 µM,,1.01 µM,> 23.6 µM,0.0537 µM,> 100 µM,0.238 µM,,0.1 µM,
